Source: US8618289B2 (Ambit Biosciences Corporation, priority 2008, dated 2013)
Where a name gives a salt, the structure may show the parent alone.

Tests used:
[1] = tested on: MEK1 phosphorylation in the A375 human melanoma cell line; assay: cells; conditions: A-375, read-out: pMEK IC50
Protocol: A375 cells (from American Type Culture Collection) were plated at 50,000 cells per well in DMEM (Mediatech) with 10% fetal bovine serum (Omega Scientific) into a 96 well plate and incubated overnight in a 37° C. incubator with 10% CO2. The cells were then washed with PBS and the medium replaced with 0.5% FBS for incubation overnight. […] The cells were incubated with compound or control for two hours at 37° C. The compound solution was aspirated off and the cells washed with cold PBS. […] The plate was centrifuged for 30 minutes to pellet out the cell debris. The cleared lysates were transferred to a 96-well Nunc plate and the ELISA protocol described by the manufacturer in Catalog #KHO0321 or KHO0291 was followed.

[2] = tested on: A375 cells; assay: cells; conditions: Homo sapiens, A-375, read-out: A375 Viability EC50
[3] = target: RAF kinases (Homo sapiens, UniProt P04049); assay: biochemical
[4] = target: RAF kinases (Homo sapiens, UniProt P15056); assay: biochemical
Sequence of RAF kinases (Homo sapiens, UniProt P15056) (P15056 whole entry): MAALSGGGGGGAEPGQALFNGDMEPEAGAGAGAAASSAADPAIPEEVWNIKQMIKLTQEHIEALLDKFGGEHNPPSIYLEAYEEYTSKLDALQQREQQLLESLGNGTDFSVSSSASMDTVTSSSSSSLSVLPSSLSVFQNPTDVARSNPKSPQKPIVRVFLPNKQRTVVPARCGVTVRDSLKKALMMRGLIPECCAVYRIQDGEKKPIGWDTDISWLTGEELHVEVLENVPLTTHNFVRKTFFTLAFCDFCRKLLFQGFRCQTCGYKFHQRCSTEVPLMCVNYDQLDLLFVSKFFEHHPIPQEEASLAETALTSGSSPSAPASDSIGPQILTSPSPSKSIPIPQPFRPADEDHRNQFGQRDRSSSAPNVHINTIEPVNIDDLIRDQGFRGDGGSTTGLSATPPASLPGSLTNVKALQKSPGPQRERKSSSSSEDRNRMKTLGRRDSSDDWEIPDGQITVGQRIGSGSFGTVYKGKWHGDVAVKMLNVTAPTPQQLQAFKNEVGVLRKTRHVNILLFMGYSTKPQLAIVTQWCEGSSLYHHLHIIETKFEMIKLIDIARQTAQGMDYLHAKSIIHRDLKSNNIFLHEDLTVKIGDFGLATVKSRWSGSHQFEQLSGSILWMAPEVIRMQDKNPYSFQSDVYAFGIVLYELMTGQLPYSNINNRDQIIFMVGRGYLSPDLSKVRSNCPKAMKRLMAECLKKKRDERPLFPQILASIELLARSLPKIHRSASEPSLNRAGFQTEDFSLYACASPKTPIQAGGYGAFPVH

Sequence of RAF kinases (Homo sapiens, UniProt P04049) (P04049 whole entry): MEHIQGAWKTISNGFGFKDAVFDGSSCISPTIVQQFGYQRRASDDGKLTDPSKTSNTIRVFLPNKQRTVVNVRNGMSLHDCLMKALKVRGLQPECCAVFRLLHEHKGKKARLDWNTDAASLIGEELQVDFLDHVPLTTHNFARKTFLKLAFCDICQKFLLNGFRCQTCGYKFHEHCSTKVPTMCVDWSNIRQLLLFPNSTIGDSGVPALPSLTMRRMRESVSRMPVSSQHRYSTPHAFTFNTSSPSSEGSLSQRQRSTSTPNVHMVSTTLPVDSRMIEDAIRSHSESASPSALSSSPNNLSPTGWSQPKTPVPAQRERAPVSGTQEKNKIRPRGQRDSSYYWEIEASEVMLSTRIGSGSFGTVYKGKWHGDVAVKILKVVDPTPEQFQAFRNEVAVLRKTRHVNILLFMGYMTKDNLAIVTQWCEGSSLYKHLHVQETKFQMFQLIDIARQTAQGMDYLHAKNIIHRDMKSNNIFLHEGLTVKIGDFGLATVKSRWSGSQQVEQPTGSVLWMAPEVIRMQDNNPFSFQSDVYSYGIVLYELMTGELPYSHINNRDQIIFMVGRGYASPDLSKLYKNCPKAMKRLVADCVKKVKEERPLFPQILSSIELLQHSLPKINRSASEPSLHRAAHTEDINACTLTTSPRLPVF

Structure (SMILES)	IC50 [1]	EC50 [2]	Kd [3]	Kd [4]
COc1cc2c(Oc3cccc(NC(=O)Nc4cc(C(C)(C)C)on4)c3)ncnc2cc1OCCN1CCC(CO)CC1 [Ex 37, 1-(5-tert-butyl-isoxazol-3-yl)-3-(3-{7-[2-(4-hydroxymethyl-piperidin-1-yl)-ethoxy]-6-methoxy-quinazolin-4-yloxy}-phenyl)-urea]	< 250 nM	250 to 500 nM	250 to 500 nM	250 to 500 nM
COc1cc2c(Oc3cccc(NC(=O)Nc4cc(C(C)(C)C)on4)c3)ncnc2cc1OCCN1CCN(CCO)CC1 [Ex 38, 1-(5-tert-butylisoxazol-3-yl)-3-(3-(7-(2-(4-(2-hydroxyethyl)piperazin-1-yl)ethoxy)-6-methoxyquinazolin-4-yloxy)phenyl)urea]	< 250 nM	250 to 500 nM	250 to 500 nM	250 to 500 nM
COc1cc2c(Oc3cccc(NC(=O)Nc4cc(C(C)(C)C)on4)c3)ncnc2cc1OCCN1CCS(=O)(=O)CC1 [Ex 39, 1-(5-tert-butyl-isoxazol-3-yl)-3-(3-{7-[2-(1,1-dioxo-116-thiomorpholin-4-yl)-ethoxy]-6-methoxy-quinazolin-4-yloxy}-phenyl)-urea]	< 250 nM	< 250 nM	250 to 500 nM	250 to 500 nM
COCCOc1ccc2c(Oc3cccc(NC(=O)Nc4cc(C(C)(C)C)on4)c3)ncnc2c1 [Ex 43, 1-(5-tert-butylisoxazol-3-yl)-3-(3-(7-(2-methoxyethoxy)quinazolin-4-yloxy)phenyl)urea]	250 to 500 nM	> 1000 nM	250 to 500 nM	500 to 1000 nM
COCCOc1cc2c(Sc3cccc(NC(=O)Nc4cc(C(C)(C)C)on4)c3)ncnc2cc1OC [Ex 45, 1-(5-tert-butylisoxazol-3-yl)-3-(3-(7-methoxy-6-(2-methoxyethoxy)quinazolin-4-ylthio)phenyl)urea]	< 250 nM	250 to 500 nM	250 to 500 nM	500 to 1000 nM
COc1cc2ncnc(Sc3cccc(NC(=O)Nc4cc(C(C)(C)C)on4)c3)c2cc1OC [Ex 46, 1-(5-tert-butylisoxazol-3-yl)-3-(3-(6,7-dimethoxyquinazolin-4-ylthio)phenyl)urea]	< 250 nM	250 to 500 nM	250 to 500 nM	500 to 1000 nM
COCCOc1cc2ncnc(Sc3cccc(NC(=O)Nc4cc(C(C)(C)C)on4)c3)c2cc1OC [Ex 52, 1-(5-tert-butylisoxazol-3-yl)-3-{3-[6-methoxy-7-(2-methoxyethoxy)quinazolin-4-ylthio]phenyl}urea hydrochloride]	< 250 nM	500 to 1000 nM	250 to 500 nM	250 to 500 nM
COCCOc1cc2ncnc(Sc3cccc(NC(=O)Nc4cc(C(C)(C)C)on4)c3)c2cc1OCCOC [Ex 53, 1-{3-[6,7-bis(2-methoxyethoxy)quinazolin-4-ylthio]phenyl}-3-(5-tert-butylisoxazol-3-yl)urea hydrochloride]	< 250 nM	500 to 1000 nM	250 to 500 nM	500 to 1000 nM
CCOc1cc2c(Sc3cccc(NC(=O)Nc4cc(C(C)(C)C)on4)c3)ncnc2cc1OC [Ex 56, 1-(5-tert-butylisoxazol-3-yl)-3-(3-(6-ethoxy-7-methoxyquinazolin-4-ylthio)phenyl)urea]	< 250 nM	< 250 nM	250 to 500 nM	500 to 1000 nM
COc1cc2ncnc(Sc3cccc(NC(=O)Nc4cc(C(C)(C)C)on4)c3)c2cc1OCCCN1CCCCC1 [Ex 57, 1-(5-tert-butylisoxazol-3-yl)-3-(3-(7-methoxy-6-(3-(piperidin-1-yl)propoxy)quinazolin-4-ylthio)phenyl) urea]	< 250 nM	> 1000 nM	500 to 1000 nM	500 to 1000 nM
COc1cc2ncnc(Sc3cccc(NC(=O)Nc4cc(C(C)(C)C)on4)c3)c2cc1OCCCN1CCC(CO)CC1 [Ex 58, 1-(5-tert-butylisoxazol-3-yl)-3-(3-(6-(3-(4-(hydroxymethyl)piperidin-1-yl)propoxy)-7-methoxyquinazolin-4-ylthio)phenyl)urea]	< 250 nM	> 1000 nM	500 to 1000 nM	250 to 500 nM
